Test results taken from ChEMBL document CHEMBL1151132, “Autooxidation Studies on the Marine Sesterterpene Tetronic Acid, Variabilin” (J Nat Prod, 1989).

What was measured:
[1] = tested on: Poliovirus 1; experiment: Antiviral activity against PV1 infected in […] BSC cells at 2 ug/6 mm disk; type: functional
[2] = Cytotoxicity against […] BSC cells at 2 ug /6 mm disk; type: cell-based
[3] = tested on: Poliovirus 1; experiment: Antiviral activity against PV1 infected in […] BSC cells at 20 ug/6 mm disk; type: functional
[4] = tested on: Human alphaherpesvirus 1; experiment: Antiviral activity against HSV1 infected in […] BSC cells at 20 ug/6 mm disk; type: functional
[5] = Cytotoxicity against […] BSC cells at 20 ug /6 mm disk; type: cell-based
[6] = tested on: Human alphaherpesvirus 1; experiment: Antiviral activity against HSV1 infected in […] BSC cells at 2 ug/6 mm disk; type: functional
[7] = tested on: Poliovirus 1; experiment: Antiviral activity against PV1 infected in […] BSC cells at 5 ug/6 mm disk; type: functional
[8] = Cytotoxicity against […] BSC cells at 5 ug /6 mm disk; type: cell-based

| SMILES | inhibition zone (IZ) [1] | inhibition zone (IZ) [2] | inhibition zone (IZ) [3] | inhibition zone (IZ) [4] | inhibition zone (IZ) [5] | inhibition zone (IZ) [6] | inhibition zone (IZ) [7] | inhibition zone (IZ) [8] |
| --- | --- | --- | --- | --- | --- | --- | --- | --- |
| COC1=C(C)C(=O)O/C1=C\C(C)CCC/C(C)=C/CC/C(C)=C/CCC1=CC(=O)OC1O (mixture of isomers) | 2 mm | 1 mm | 4 mm | 4 mm | 2 mm |  |  |  |
| CC1=C(O)/C(=C/C(C)CCC/C(C)=C/CC/C(C)=C/CCc2ccoc2)OC1=O (stereo unspecified) [VARIABILIN] | 4 mm | 1 mm |  |  |  | 4 mm |  |  |
| C/C(=C\CCc1ccoc1)CC/C=C(\C)CCCC(C)CC(=O)O (stereo unspecified) |  |  |  |  |  |  | 2 mm | 2 mm |
| COC1=C(C)C(=O)O/C1=C\C(C)CCC/C(C)=C/CC/C(C)=C/CCC1=CC(O)OC1=O (mixture of isomers) | 2 mm | 2 mm |  |  | 4 mm |  |  |  |
| COC1=C(C)C(=O)O/C1=C\C(C)CCC/C(C)=C/CC/C(C)=C/CCC1(O)C(OC)OC(OC)C1O (mixture of isomers) |  |  | 4 mm | 4 mm | 1 mm |  |  |  |
